In patent US20250129103A1, “METHODS FOR TREATMENT OF CANCER” (Frontier Medicines Corporation, priority 2022, published 2025):

Molecular target: KRAS G12C (GMPPNP-loaded) and cRAF (Ras-binding domain) interaction (Homo sapiens (Human), UniProt P01116, C118S/C51S/C80L/G12C)
Test: Inhibition of KRAS G12C and cRAF binding (AlphaScreen)
Conditions: KRAS G12C loaded with GMPPNP, cRaf RBD, 2 hours preincubation; read-out: Raf-1 RBD K-Ras IC50
Protocol: Compounds were diluted in 100% DMSO and each compound concentration was spotted at 200 nl/well onto low volume, white 384 well plates. […] KRAS G12C was preloaded with the GTP analogue Guanosine 5′-[β,γ-imido]triphosphate (GMPPNP). The KRAS G12C was diluted in 25 mM Hepes, pH 7.4, 150 mM NaCl, 5 mM MgCl2, 0.01% TritonX-100 and 10 μM GMPPNP and added at 10 ul/well to compound-spotted plates resulting in a DMSO concentration of 2%. Plates were incubated for 2 hours. A mixture of RBD and the AlphaScreen streptavidin donor and glutathione acceptor beads diluted in 25 mM Hepes, pH 7.4, 150 mM NaCl, 5 mM MgCl2, 0.01% TritonX-100 and 2% DMSO was then added at 10 ul/well and incubated for 60-90 minutes before the samples were read for emission at 570 nm after excitation of the donor beads at 680 nm. All incubations were performed at room temperature. The final top compound concentration was 50 μM with 1:3 titrations for 10-point dose response curves. […] IC50S were determined using nonlinear regression fit of [inhibitor] vs. response (4 parameters). […]

Sequence of KRAS G12C (GMPPNP-loaded) and cRAF (Ras-binding domain) interaction (P01116 other isoform, or with tags, fused parts or gaps G12C/C51S/C80L/C118S): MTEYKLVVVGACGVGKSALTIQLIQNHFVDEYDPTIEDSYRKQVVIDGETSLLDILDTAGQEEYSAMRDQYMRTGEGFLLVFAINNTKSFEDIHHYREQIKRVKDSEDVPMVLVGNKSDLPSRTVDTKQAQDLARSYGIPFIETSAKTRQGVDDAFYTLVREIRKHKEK

Row | SMILES | IC50 [nM]
1 | C[C@H]1CN(C/C=C/C(=O)N2CCN(c3nc(OCC45CCCN4CCC5)nc4c3CCN(c3cccc5cccc(Cl)c35)C4)C[C@@H]2CC#N)C[C@H](C)O1 [Compound 198] | < 10
2 | Cc1nccc(/C=C/C(=O)N2CCN(c3nc(OCC45CCCN4CCC5)nc4c3CCN(c3cccc5ccc(F)c(Cl)c35)C4)C[C@@H]2CC#N)n1 [Compound 206] | 100 to 500
3 | C[C@@H]1CN(C/C=C/C(=O)N2CCN(c3nc(OC[C@@]45CCCN4C[C@H](F)C5)nc4c(F)c(-c5cccc(Cl)c5C5CC5)ncc34)C[C@@H]2CC#N)C[C@@H](C)O1 [Compound 301] | 10 to 100
4 | CC(=O)N1CCN(C/C=C/C(=O)N2CCN(c3nc(OC[C@@]45CCCN4C[C@H](F)C5)nc4c(F)c(-c5cccc6cccc(Cl)c56)ncc34)C[C@@H]2CC#N)CC1 [Compound 324] | < 10
5 | N#CC[C@H]1CN(c2nc(OC[C@@]34CCCN3C[C@H](F)C4)nc3c(F)c(-c4cccc5cccc(Cl)c45)ncc23)CCN1C(=O)/C=C/CN1CCn2ncnc2C1 [Compound 265] | 100 to 500
6 | N#CC[C@H]1CN(c2nc(OCC34CCCN3CCC4)nc3c2CCN(c2cccc4cccc(Cl)c24)C3)CCN1C(=O)/C=C/CN1C[C@H]2C[C@@H]1CO2 [Compound 63] | < 10
7 | N#CC[C@H]1CN(c2nc(OC[C@@]34CCCN3C[C@H](F)C4)nc3c(F)c(-c4cccc5ccc(F)c(Cl)c45)ncc23)CCN1C(=O)/C=C/CN1CCSCC1 [Compound 231] | < 10
8 | C[C@@H]1CN(C/C=C/C(=O)N2CCN(c3nc(OC[C@@]45CCCN4C[C@H](F)C5)nc4c(F)c(-c5cccc6cccc(F)c56)ncc34)C[C@@H]2CC#N)C[C@H](C)O1 [Compound 234] | 10 to 100
9 | Cn1nnc(/C=C/C(=O)N2CCN(c3nc(OCC45CCCN4CCC5)nc4c3CCN(c3cccc5cccc(Cl)c35)C4)C[C@@H]2CC#N)n1 [Compound 119] | > 500
10 | CO[C@@H]1CCN(C/C=C/C(=O)N2CCN(c3nc(OC[C@@]45CCCN4C[C@H](F)C5)nc4c(F)c(-c5cccc6cccc(F)c56)ncc34)C[C@@H]2CC#N)C1 [Compound 221] | < 10
11 | N#CC[C@H]1CN(c2nc(OC[C@@]34CCCN3C[C@H](F)C4)nc3c(F)c(-c4cccc(Cl)c4C4CC4)ncc23)CCN1C(=O)/C=C/CN1CC[C@@H](F)C1 [Compound 284] | < 10
12 | N#CC[C@H]1CN(c2nc(OCC34CCCN3CCC4)nc3c2CCN(c2cccc4cccc(Cl)c24)C3)CCN1C(=O)/C=C/CN1CCC(F)(F)C1 [Compound 176] | 10 to 100
13 | N#CC[C@H]1CN(c2nc(OCC34CCCN3CCC4)nc3c(F)c(-c4cccc5ccc(F)c(Cl)c45)ncc23)CCN1C(=O)/C=C/CN1CCOCC1 [Compound 179] | < 10
14 | Cc1c(F)ccc2c(-c3ncc4c(N5CCN(C(=O)/C=C/CN6CC7CC(C6)O7)[C@@H](CC#N)C5)nc(OC[C@@]56CCCN5C[C@H](F)C6)nc4c3F)cccc12 [Compound 253] | > 500
15 | Cc1nccc(/C=C/C(=O)N2CCN(c3nc(OC[C@@]45CCCN4C[C@H](F)C5)nc4c(F)c(-c5ccccc5C(F)F)ncc34)C[C@@H]2CC#N)n1 [Compound 290] | > 500
16 | CC(C)c1noc(/C=C/C(=O)N2CCN(c3nc(OCC45CCCN4CCC5)nc4c(F)c(-c5cccc6ccc(F)c(Cl)c56)ncc34)C[C@@H]2CC#N)n1 [Compound 129] | 100 to 500
17 | N#CC[C@H]1CN(c2nc(OC[C@@]34CCCN3C[C@H](F)C4)nc3c(F)c(-c4nc(N)cc5cccc(Cl)c45)ncc23)CCN1C(=O)/C=C/CN1CCOCC1 [Compound 59] | < 10
18 | CC1(c2noc(/C=C/C(=O)N3CCN(c4nc(OC[C@@]56CCCN5C[C@H](F)C6)nc5c4CCN(c4cccc6cccc(Cl)c46)C5)C[C@@H]3CC#N)n2)CC1 [Compound 46] | 10 to 100
19 | N#CC[C@H]1CN(c2nc(OCC34CCCN3CCC4)nc3c(F)c(-c4cccc5cccc(Cl)c45)ncc23)CCN1C(=O)/C=C/CN1C[C@@H]2C[C@H]1CO2 [Compound 184] | < 10
20 | Cn1cnc(/C=C/C(=O)N2CCN(c3nc(OC[C@@]45CCCN4C[C@H](F)C5)nc4c3CCN(c3cccc5cccc(Cl)c35)C4)C[C@@H]2CC#N)n1 [Compound 43] | > 500
21 | Cc1c(F)ccc2c(-c3ncc4c(N5CCN(C(=O)/C=C/CN6[C@@H]7CC[C@H]6COC7)[C@@H](CC#N)C5)nc(OC[C@@]56CCCN5C[C@H](F)C6)nc4c3F)cccc12 [Compound 251] | 100 to 500
22 | N#CC[C@H]1CN(c2nc(OC[C@@]34CCCN3C[C@H](F)C4)nc3c(F)c(-c4cccc5cccc(F)c45)ncc23)CCN1C(=O)/C=C/CN1C2COCC1C2 [Compound 248] | 10 to 100

Row | SMILES | IC50 [nM]
23 | N#CC[C@H]1CN(c2nc(OC[C@@]34CCCN3C[C@H](F)C4)nc3c(F)c(-c4cccc5cccc(Cl)c45)ncc23)CCN1C(=O)/C=C/CN1CCn2ncnc2C1 [Compound 267] | 10 to 100
24 | N#CC[C@H]1CN(c2nc(OC[C@@]34CCCN3C[C@H](F)C4)nc3c(F)c(-c4cccc5ccc(F)c(F)c45)ncc23)CCN1C(=O)/C=C/CN1CCn2ccnc2C1 [Compound 264] | 100 to 500
25 | N#CC[C@H]1CN(c2nc(OC[C@@]34CCCN3C[C@H](F)C4)nc3c(F)c(-c4cccc5cccc(Cl)c45)ncc23)CCN1C(=O)/C=C/CN1C[C@H]2COC[C@H]21 [Compound 291] | 10 to 100
26 | CC(C)N1CC[C@@H]1/C=C/C(=O)N1CCN(c2nc(OC[C@@]34CCCN3C[C@H](F)C4)nc3c(F)c(-c4cccc(Cl)c4C4CC4)ncc23)C[C@@H]1CC#N [Compound 313] | 100 to 500
27 | COC1CN(C/C=C/C(=O)N2CCN(c3nc(OCC45CCCN4CCC5)nc4c3CCN(c3cccc5cccc(Cl)c35)C4)C[C@@H]2CC#N)C1 [Compound 205] | < 10
28 | N#CC[C@H]1CN(c2nc(OC[C@@]34CCCN3C[C@H](F)C4)nc3c(F)c(-c4cccc5cccc(Cl)c45)ncc23)CCN1C(=O)/C=C/CN1CC[C@H](OC(F)F)C1 [Compound 303] | < 10
29 | Cc1c(F)ccc2c(-c3ncc4c(N5CCN(C(=O)/C=C/CN6CCOCC6)[C@@H](CC#N)C5)nc(OC[C@@]56CCCN5C[C@H](F)C6)nc4c3F)cccc12 [Compound 252] | 100 to 500
30 | N#CC[C@H]1CN(c2nc(OCC34CCCN3CCC4)nc3c2CCN(c2cccc4cccc(Cl)c24)C3)CCN1C(=O)/C=C/CN1CC2CC2C1 (some centres unmarked) [Compound 204] | < 10
31 | N#CC[C@H]1CN(c2nc(OC[C@@]34CCCN3C[C@H](F)C4)nc3c(F)c(-c4cccc5cccc(Cl)c45)ncc23)CCN1C(=O)/C=C/CN1CC[C@@H](OC(F)F)C1 [Compound 304] | < 10
32 | CCc1c(F)ccc2cccc(-c3ncc4c(N5CCN(C(=O)/C=C/c6cc(C)nc(C)n6)[C@@H](CC#N)C5)nc(OC[C@@]56CCCN5C[C@H](F)C6)nc4c3F)c12 [Compound 98, 2-((S)-1-((E)-3-(2,6-dimethylpyrimidin-4-yl)acryloyl)-4-(7-(8-ethyl-7-fluoronaphthalen-1-yl)-8-fluoro-2-(((2R,7aS)-2-fluorotetrahydro-1H-pyrrolizin-7a(5H)-yl)methoxy)pyrido[4,3-d]pyrimidin-4-yl)piperazin-2-yl)acetonitrile] | < 10
33 | CC1(c2noc(/C=C/C(=O)N3CCN(c4nc(OCC56CCCN5CCC6)nc5c4CCN(c4cccc6cccc(Cl)c46)C5)C[C@@H]3CC#N)n2)CC1 [Compound 45] | 10 to 100
34 | N#CC[C@H]1CN(c2nc(OC[C@@]34CCCN3C[C@H](F)C4)nc3c(F)c(-c4cccc5ccc(F)c(F)c45)ncc23)CCN1C(=O)/C=C/CN1CCn2nccc2C1 [Compound 268] | 10 to 100
35 | N#CC[C@H]1CN(c2nc(OCC34CCCN3CCC4)nc3c2CCN(c2cccc4cccc(Cl)c24)C3)CCN1C(=O)/C=C/CN1CC2(COC2)C1 [Compound 194] | < 10
36 | N#CC[C@H]1CN(c2nc(OCC34CCCN3CCC4)nc3c2CCN(c2cccc4cccc(Cl)c24)C3)CCN1C(=O)/C=C/CN1C2COCC1C2 [Compound 199] | < 10
37 | N#CC[C@H]1CN(c2nc(OCC34CCCN3CCC4)nc3c2CCN(c2cccc4cccc(Cl)c24)C3)CCN1C(=O)/C=C/CN1CC2CCC(C1)O2 [Compound 167] | < 10
38 | N#CC[C@H]1CN(c2nc(OC[C@@]34CCCN3C[C@H](F)C4)nc3c(F)c(-c4cccc5ccc(F)c(Cl)c45)ncc23)CCN1C(=O)/C=C/CN1CCS(=O)(=O)CC1 [Compound 213] | 100 to 500
39 | C[C@H](F)c1noc(/C=C/C(=O)N2CCN(c3nc(OC[C@@]45CCCN4C[C@H](F)C5)nc4c(F)c(-c5cccc6cccc(Cl)c56)ncc34)C[C@@H]2CC#N)n1 [Compound 137] | 10 to 100
40 | CCN1CC[C@@H]1/C=C/C(=O)N1CCN(c2nc(OC[C@@]34CCCN3C[C@H](F)C4)nc3c(F)c(-c4cccc(Cl)c4C4CC4)ncc23)C[C@@H]1CC#N [Compound 312] | 10 to 100
41 | N#CC[C@H]1CN(c2nc(OCC34CCCN3CCC4)nc3c2CCN(c2cccc4cccc(Cl)c24)C3)CCN1C(=O)/C=C/c1cnccn1 [Compound 39] | > 500
42 | C[C@@H]1CN(C/C=C/C(=O)N2CCN(c3nc(OCC45CCCN4CCC5)nc4c3CCN(c3cccc5cccc(Cl)c35)C4)C[C@@H]2CC#N)C[C@H](C)O1 [Compound 196] | 10 to 100
43 | Cc1nccc(/C=C/C(=O)N2CCN(c3nc(OC[C@@]45CCCN4C[C@H](F)C5)nc4c(F)c(-c5c(C)cc(F)c6[nH]ncc56)ncc34)C[C@@H]2CC#N)n1 [Compound 212] | 100 to 500
44 | Cc1nccc(/C=C/C(=O)N2CCN(c3nc(OC[C@@]45CCCN4C[C@H](F)C5)nc4c(F)c(-c5n[nH]c6cccc(Cl)c56)ncc34)C[C@@H]2CC#N)n1 [Compound 230] | > 500
